In PubChem BioAssay (NCI) one finds TGI data, which are given here for seven molecules.

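Assay format: 96-well plates, 48-hour exposure. Definition used: TGI = concentration required for complete inhibition of growth.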 Where only a bound is given, the exact number is not on record here.

Test systems include HCT-15 colon; HOP-92 NSCLC; HT29 colon; SNB-19 CNS; HOP-62 NSCLC; M14 melanoma; SK-MEL-28 melanoma; HCT-116 colon; SK-MEL-5 melanoma; OVCAR-4 ovarian; U251 CNS; TK-10 renal; OVCAR-8 ovarian; RXF 393 renal; UACC-257 melanoma; SNB-75 CNS; ACHN renal; A498 renal.
What all share (assay): NCI-60 cell line screen, 48 h

As to `Cn1c(=O)nc2n(-c3ccc(Cl)cc3Cl)c3ccccc3nc-2c1=O`, the TGI in the assay with HCT-15 colon amounted to 15.4 µM; in the assay on HOP-92 NSCLC it was 9.24 µM; in the assay with HT29 colon, 10.3 µM; with SNB-19 CNS, 26.5 µM; in the assay with HOP-62 NSCLC, 23.9 µM; with M14 melanoma, 4.58 µM. Besides, the TGI in the assay with SK-MEL-28 melanoma was found to be 23.5 µM; with HCT-116 colon, 5.19 µM; in the assay on SK-MEL-5 melanoma, 3.36 µM; in the assay on OVCAR-4 ovarian, 15.4 µM; in the assay with U251 CNS it was 19 µM; in the assay with TK-10 renal, 54.2 µM. Besides, the values for the TGI with OVCAR-8 ovarian and with RXF 393 renal were 14.1 µM and 15.4 µM, respectively.
As to `CC(=O)O[C@]12CCC[C@H]1C1(O)C(O)CCC[C@H]12` (stereo partly drawn), the TGI in the assay on HCT-15 colon, in the assay on HT29 colon, in the assay with SNB-19 CNS, with HOP-62 NSCLC, with UACC-257 melanoma and in the assay with M14 melanoma was over 100 µM in each case. For the same molecule, the TGI in the assay with SK-MEL-28 melanoma, in the assay with HCT-116 colon, in the assay on SK-MEL-5 melanoma, in the assay on OVCAR-4 ovarian, with U251 CNS and with TK-10 renal was over 100 µM in each case. In addition, the TGI in the assay on OVCAR-8 ovarian, in the assay on SNB-75 CNS, in the assay on RXF 393 renal and with ACHN renal was over 100 µM each time.
`CC(Oc1ccc(OCC2CCCCC2)cc1)C(=O)N(CCO)CCO` (stereo not drawn): the TGI with HCT-15 colon, in the assay on HT29 colon, in the assay on SNB-19 CNS, with A498 renal, in the assay with UACC-257 melanoma and in the assay on M14 melanoma was over 100 µM in each case. Moreover, the TGI in the assay with SK-MEL-28 melanoma, in the assay on HCT-116 colon, in the assay on SK-MEL-5 melanoma, in the assay on OVCAR-4 ovarian, in the assay on U251 CNS and in the assay with TK-10 renal was over 100 µM each time. For the same molecule, the TGI in the assay with OVCAR-8 ovarian, in the assay on SNB-75 CNS, with RXF 393 renal and with ACHN renal was over 100 µM in each case.
On to `C=CC12CN(C)C3C4COC(CC41)C1(C(=O)Nc4ccccc41)C32` (stereo not drawn), for which the TGI in the assay on HCT-15 colon, in the assay with HOP-92 NSCLC, in the assay on HT29 colon, with SNB-19 CNS, with HOP-62 NSCLC and with A498 renal was over 200 µM in each case. The TGI with UACC-257 melanoma, in the assay with SK-MEL-28 melanoma, with HCT-116 colon, with SK-MEL-5 melanoma, with OVCAR-4 ovarian and with U251 CNS was over 200 µM throughout. The TGI in the assay on OVCAR-8 ovarian, in the assay with SNB-75 CNS and in the assay on RXF 393 renal was over 200 µM in each case.
Take `OC(c1ccccc1)(c1ccccc1)c1cccnc1`: the TGI with HCT-15 colon, in the assay on HT29 colon, in the assay on SNB-19 CNS, in the assay on HOP-62 NSCLC, in the assay on A498 renal and in the assay on UACC-257 melanoma was over 100 µM in each case. The TGI in the assay on M14 melanoma, in the assay on SK-MEL-28 melanoma, in the assay on HCT-116 colon, in the assay on SK-MEL-5 melanoma, in the assay with OVCAR-4 ovarian and in the assay with U251 CNS was over 100 µM in each case. Also, the TGI with TK-10 renal, with OVCAR-8 ovarian, in the assay on SNB-75 CNS and with ACHN renal was over 100 µM throughout.
With `[O-]c1on[n+]2c1c(Nc1ccc(Cl)cc1)nc1ccccc12`, the TGI in the assay with HOP-92 NSCLC, in the assay with HT29 colon, in the assay with SNB-19 CNS, in the assay on A498 renal, in the assay on UACC-257 melanoma and with M14 melanoma was over 100 µM throughout. Also, the TGI in the assay with SK-MEL-28 melanoma, in the assay with HCT-116 colon, in the assay on SK-MEL-5 melanoma, in the assay with OVCAR-4 ovarian, in the assay on U251 CNS and with TK-10 renal was over 100 µM in each case. Moreover, the TGI with OVCAR-8 ovarian, in the assay with SNB-75 CNS, with RXF 393 renal and with ACHN renal was over 100 µM each time.
For `CC(C)=CCC/C(C)=C/Cc1c(O)ccc2c1[nH]c1cc(O)c(C)cc12`, the TGI is over 25 µM in the assay on HCT-15 colon; over 25 µM with HOP-92 NSCLC; over 25 µM in the assay with HT29 colon; over 25 µM in the assay on SNB-19 CNS; 23.4 µM with HOP-62 NSCLC; over 25 µM in the assay on M14 melanoma. Also, the TGI in the assay with SK-MEL-28 melanoma is over 25 µM; with HCT-116 colon, over 25 µM; with SK-MEL-5 melanoma it was over 25 µM; in the assay on OVCAR-4 ovarian, 12.1 µM; in the assay on U251 CNS it was over 25 µM; with TK-10 renal it was over 25 µM. In addition, the TGI in the assay on OVCAR-8 ovarian, with RXF 393 renal and in the assay with ACHN renal was over 25 µM each time.
